# In the supplement of paper PMC11208160:
# Test: recombinant barcode read abundance after kanamycin selection (control-corrected) (log10(CPM+1)); higher = more efficient recombination; sequences stand for … in AGTGCAGAGAAAATCGGCCAGTTTTCTCTGCCTGCAGTCCGCATGCCGT…AGATTTATGCAGCGGACTGCCTTTCTCCCAAAGTGATAAACCGGACAGTATCATGGACCGGTTTTCCCGGTAATCCGTATTTGCAAGGTTGGTTTCACT; site = the 11-nt target
# Procedure, shortened: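 Recombination efficiency comes from barcode counts at recombinant junctions, converted to counts per million, averaged and corrected against the control. Values appear as log10(CPM+1). They were obtained from a pooled E. coli screen in which each oligo paired a target with an IS621 bridge RNA target-binding loop, and cells were plated in duplicate on chloramphenicol/ampicillin LB agar or on chloramphenicol/ampicillin/kanamycin with 0.1 mM IPTG.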
# 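Also: IS621 recombinase and bridge RNA in Escherichia coli cells.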
row,Sequence,recombinant barcode read abundance (log10)
1,TCCCGGACTTGGGTTCTAACCTGTTGCCT (site TCGCGGACTAG),0
2,TCCCGGACTTGGGTTCTAACCTGTTGCCT (site TCTCGGACTAG),0.1
3,TCCGAAGCTTGGGTTCTAACCTGTTGCTA (site TCCAAAGCTTA),0.0181
4,TCCGAAGCTTGGGTTCTAACCTGTTGCTA (site TCCCAAGCTTA),0.264
5,TCCGAAGCTTGGGTTCTAACCTGTTGCTA (site TCCGAAGCTTA),0.29
6,TCCGAAGCTTGGGTTCTAACCTGTTGCTA (site TCCTAAGCTTA),0.0103
7,TCCGAGACTTGGGTTCTAACCTGTTGCCT (site TCCGAGACTAG),1.4
8,TCCGAGACTTGGGTTCTAACCTGTTGCCT (site TCCGAGACTCG),0.048
9,TCCGAGACTTGGGTTCTAACCTGTTGCCT (site TCCGAGACTGG),0.267
10,TCCGAGACTTGGGTTCTAACCTGTTGCCT (site TCCGAGACTTG),0.157
11,TCCGGAGCTTGGGTTCTAACCTGTTGCCG (site GTGAACCCTTT),0.0406
12,TCCGGAGCTTGGGTTCTAACCTGTTGCCG (site TCCGGAGCTCG),0.652
13,TCCGGTTCTTGGGTTCTAACCTGTTGCCT (site ACGGGTTCTAG),0.0897
14,TCCGGTTCTTGGGTTCTAACCTGTTGCCT (site TCCGGTTCTAG),0.965
15,TCCGTGGCTTGGGTTCTAACCTGTTGCCT (site TCCGTGACTAG),0.121
16,TCCGTGGCTTGGGTTCTAACCTGTTGCCT (site TCCGTGCCTAG),0.261
17,TCCGTGGCTTGGGTTCTAACCTGTTGCCT (site TCCGTGGCTAG),0.916
18,TCCGTGGCTTGGGTTCTAACCTGTTGCCT (site TCCGTGTCTAG),0.244
19,TCCGTGTCTTGGGTTCTAACCTGTTGCCT (site TCCGTGACTAG),0.0308
20,TCCGTGTCTTGGGTTCTAACCTGTTGCCT (site TCCGTGCCTAG),0.241
21,TCCGTGTCTTGGGTTCTAACCTGTTGCCT (site TCCGTGGCTAG),0.0597
22,TCCGTGTCTTGGGTTCTAACCTGTTGCCT (site TCCGTGTCTAG),2.24

row,Sequence,recombinant barcode read abundance (log10)
1,TCCTAGTCTTGGGTTCTAACCTGTTGCAG (site GGTCCTCCTTC),0.0984
2,TCCTAGTCTTGGGTTCTAACCTGTTGCAG (site TCCTAGTCTCT),0.392
3,TCCTATCCTTGGGTTCTAACCTGTTGCGT (site TCCCATCCTAC),0.9
4,TCCTATCCTTGGGTTCTAACCTGTTGCGT (site TCCTATCCTAC),0.623
5,TCCTGAGCTTGGGTTCTAACCTGTTGCTG (site TCCTGAGCTCA),0.405
6,TCCTGAGCTTGGGTTCTAACCTGTTGCTG (site TCCTTAGCTCG),0.0103
7,TCCTTCACTTGGGTTCTAACCTGTTGCCT (site TCCTTCACTAG),0.285
8,TCCTTCACTTGGGTTCTAACCTGTTGCCT (site TCGTTCGCTAG),0.0665
9,TCGAACTCTTGGGTTCTAACCTGTTGCTT (site TCGAACTCTAA),0.339
10,TCGAACTCTTGGGTTCTAACCTGTTGCTT (site TCGCGCTCTAA),0.0841
11,TCGAAGTCTTGGGTTCTAACCTGTTGCTA (site AGATCTCCTAC),0.0769
12,TCGAAGTCTTGGGTTCTAACCTGTTGCTA (site TCGAAGTCTTA),0.272
13,TCGAGGCCTTGGGTTCTAACCTGTTGCTA (site CATCCATCTAT),0.162
14,TCGAGGCCTTGGGTTCTAACCTGTTGCTA (site TCGAGGCCTTA),0.0602
15,TCGAGTCCTTGGGTTCTAACCTGTTGCGG (site TCGAGTCCTCC),1.08
16,TCGAGTCCTTGGGTTCTAACCTGTTGCGG (site TTGAGGCCTCC),0
17,TCGAGTGCTTGGGTTCTAACCTGTTGCAG (site CTACTATCTAC),0.0294
18,TCGAGTGCTTGGGTTCTAACCTGTTGCAG (site TCGAGTGCTCT),0.263
19,TCGATCCCTTGGGTTCTAACCTGTTGCCT (site TCAATCCCTAG),0.194
20,TCGATCCCTTGGGTTCTAACCTGTTGCCT (site TCCATCCCTAG),0.144
21,TCGATCCCTTGGGTTCTAACCTGTTGCCT (site TCGATCCCTAG),0.577
22,TCGATCCCTTGGGTTCTAACCTGTTGCCT (site TCTATCCCTAG),0.0661

row,Sequence,recombinant barcode read abundance (log10)
1,TCGATTACTTGGGTTCTAACCTGTTGCCT (site TCGATCACTAG),0.269
2,TCGATTACTTGGGTTCTAACCTGTTGCCT (site TCGATTACTAG),0.123
3,TCGCACACTTGGGTTCTAACCTGTTGCCT (site ACGCACACTAG),0.276
4,TCGCACACTTGGGTTCTAACCTGTTGCCT (site CCGCACACTAG),0.324
5,TCGCACACTTGGGTTCTAACCTGTTGCCT (site GCGCACACTAG),0.814
6,TCGCACACTTGGGTTCTAACCTGTTGCCT (site TCGCACACTAG),0.622
7,TCGCAGACTTGGGTTCTAACCTGTTGCAC (site TCGCAGACTGT),0.0284
8,TCGCAGACTTGGGTTCTAACCTGTTGCAC (site TGGCCGACTGT),0.119
9,TCGCCTACTTGGGTTCTAACCTGTTGCCG (site TCCCCGACTCG),0.255
10,TCGCCTACTTGGGTTCTAACCTGTTGCCG (site TCGCCTACTCG),0.19
11,TCGCGCTCTTGGGTTCTAACCTGTTGCTT (site TCGAACTCTAA),0.233
12,TCGCGCTCTTGGGTTCTAACCTGTTGCTT (site TCGCGCTCTAA),0.419
13,TCGCTACCTTGGGTTCTAACCTGTTGCCT (site TCGCTACCTAG),0.109
14,TCGCTACCTTGGGTTCTAACCTGTTGCCT (site TGACTACCTAG),0.157
15,TCGGAATCTTGGGTTCTAACCTGTTGCCT (site GCGGAATCTAG),0
16,TCGGAATCTTGGGTTCTAACCTGTTGCCT (site TCGGAATCTAG),0.543
17,TCGGAGTCTTGGGTTCTAACCTGTTGCTT (site TCGGAGTCTAA),1.87
18,TCGGAGTCTTGGGTTCTAACCTGTTGCTT (site TCGGAGTCTAC),0.501
19,TCGGAGTCTTGGGTTCTAACCTGTTGCTT (site TCGGAGTCTAG),1.17
20,TCGGAGTCTTGGGTTCTAACCTGTTGCTT (site TCGGAGTCTAT),1.39
21,TCGGATGCTTGGGTTCTAACCTGTTGCAT (site GTTTCGACTTA),0.272
22,TCGGATGCTTGGGTTCTAACCTGTTGCAT (site TCGGATGCTAT),0.417

row,Sequence,recombinant barcode read abundance (log10)
1,TCGGCTCCTTGGGTTCTAACCTGTTGCCT (site TCGGCTCCTAG),0.712
2,TCGGCTCCTTGGGTTCTAACCTGTTGCCT (site TTGGCGCCTAG),0.149
3,TCGGGGTCTTGGGTTCTAACCTGTTGCCT (site ACGGGGTCTAG),1.23
4,TCGGGGTCTTGGGTTCTAACCTGTTGCCT (site CCGGGGTCTAG),0.543
5,TCGGGGTCTTGGGTTCTAACCTGTTGCCT (site GCGGGGTCTAG),0.0776
6,TCGGGGTCTTGGGTTCTAACCTGTTGCCT (site TCGGGGTCTAG),1.27
7,TCGGTTCCTTGGGTTCTAACCTGTTGCCT (site TAGGTTCCTAG),0.439
8,TCGGTTCCTTGGGTTCTAACCTGTTGCCT (site TCGGTTCCTAG),0.811
9,TCGTAGACTTGGGTTCTAACCTGTTGCTA (site GGTCGCCCTAC),0.16
10,TCGTAGACTTGGGTTCTAACCTGTTGCTA (site TCGTAGACTTA),0.215
11,TCGTCACCTTGGGTTCTAACCTGTTGCCT (site ACGTCACCTAG),0
12,TCGTCACCTTGGGTTCTAACCTGTTGCCT (site CCGTCACCTAG),0.332
13,TCGTCACCTTGGGTTCTAACCTGTTGCCT (site GCGTCACCTAG),0.139
14,TCGTCACCTTGGGTTCTAACCTGTTGCCT (site TCGTCACCTAG),0.348
15,TCGTCCTCTTGGGTTCTAACCTGTTGCCT (site TCGTCATCTAG),0.225
16,TCGTCCTCTTGGGTTCTAACCTGTTGCCT (site TCGTCCTCTAG),0.323
17,TCGTGCGCTTGGGTTCTAACCTGTTGCCT (site TCGTGCACTAG),0.177
18,TCGTGCGCTTGGGTTCTAACCTGTTGCCT (site TCGTGCCCTAG),0.087
19,TCGTGCGCTTGGGTTCTAACCTGTTGCCT (site TCGTGCGCTAG),0.0883
20,TCGTGCGCTTGGGTTCTAACCTGTTGCCT (site TCGTGCTCTAG),0
